These results are taken from patent publication US20260007643A1, “HIGHLY SOLUBLE FORMULATIONS OF HARMINE” (Reconnect Labs AG, priority 2022, published 2026).

Where two headings read alike, the source gives them in different places. Some results are limits rather than exact numbers.

How the values of data set [1] were obtained: Thus, the present inventors performed an additional screening, in which different compositions of harmine were manufactured and their solubility in water was examined.
To this end, in a first experiment 1 g of harmine freebase was added to […] of dH2O to yield a final concentration of 20% (w/w). Then, the acids mentioned above were individually added to the solution in different molar rations (e.g. 1:1 or 2:1) and it was examined, whether the acids can solubilize harmine freebase by protonation or complex formation.

A short description of data set [2]: Solubility testing of harmine salts (gravimetric, temperature-dependent). It counts as physicochemical. The settings on record: for solubility at 48 h: thermodynamic from solid; for Solubility compared with harmine hydrochloride: in words, data in water. The method, then:
Four 250 mL glass jacketed beakers are set up, which are connected with silicone hoses and connected to a Julabo F25 HE thermostat in order to be able to set a constant temperature. In the beakers there is a Pt100 sensor for temperature monitoring, a stopper with a hole that is sealed with play dough and a vial holder with space for four 4 ml vials for a quadruple determination of the solubility. The beakers are located on a strong magnetic stirrer plate so that the temperature is distributed as homogeneously as possible in the liquid medium. Water is used as the medium. The Pt100 sensors and the Julabo are connected to a measuring computer, which controls the Julabo and the temperatures of the Pt100 sensors can be read.
A Sartorius LE26P microbalance with an accuracy of ±0.01 mg is used for the gravimetric determination of the solubility in mass percent.
4 ml vials are filled with 1-2 mL of the respective solvent and equipped with a stirring magnet. The solid to be measured is then added until it is supersaturated. The prepared vials are sealed and placed in the vial holder and equilibrated in the apparatus for 48 hours at the temperature to be examined. After 24 hours, an equilibrium between the solid and liquid phases should have been reached. The liquid phase is removed and transferred to a second vial via a Whatman 20 μm PTFE pre-syringe filter. The tools used, such as the pre-syringe filter, syringe and cannula, are initially cooled or heated to the temperature to be measured. The second vial is first empty, then weighed with the solution and finally evaporated again to ensure constant mass.
At least when the data in water are considered. […] The solubilities are summarized in the table 14 below and in FIGS. 59 and 60: […]

Data set [3] in a line: Polymorph and salt screening: stability and evaluation of solid state forms. It is filed as physicochemical. From the text:
The form scNF1 was also created in the course of cooling crystallizations in water/acetone (70/30), (70/30), water/dioxane water/THF (70/30) and water/acetonitrile (70/30). In addition, the form scNF1 was created by gas diffusion crystallizations of water/1,4-dioxane, water/2-propanol and water/acetonitrile. In long-term slurries, scNF1 was successfully produced with acetone/water (80/20) and acetonitrile/water (90/10). Rapid precipitations of the form scNF1 with the antisolvent water are achieved with the solvents acetone and acetonitrile. Form scNF1 can also be crystallized by evaporating the solvent water.
The form scNF1 is Harmine-HCl dihydrate, as could be determined by means of TGA after static storage (RT/100% RH for 7 days). […] A more detailed characterization of the form scNF1 was not requested by the client.
In the course of the screening performed, 14 new solid-phases were detected by using XRPD.

A short description of data set [4]: Blood plasma profiles of harmine and harmol in healthy volunteers. It is filed as in vivo, Human. The settings on record: ~3.5 mg/kg.
A short description of data set [5]: Solubility of harmine in the solvents used in the salt screening. It is filed as physicochemical. The conditions noted are these: for solubility: organic solvent or mixture. On the procedure:
The drug substance Harmine was investigated for a salt screening of different salts by crystallization experiments from various solvents and grinding experiments. Solubility experiments were also conducted before starting the salt screening.
In the following table 3, the different solvents used in the salt screening are summarized.

Data set [6] has as its target T1, monoamine oxidase A (MAO-A) (Homo sapiens, UniProt P21397).
T1 sequence (P21397 1-527): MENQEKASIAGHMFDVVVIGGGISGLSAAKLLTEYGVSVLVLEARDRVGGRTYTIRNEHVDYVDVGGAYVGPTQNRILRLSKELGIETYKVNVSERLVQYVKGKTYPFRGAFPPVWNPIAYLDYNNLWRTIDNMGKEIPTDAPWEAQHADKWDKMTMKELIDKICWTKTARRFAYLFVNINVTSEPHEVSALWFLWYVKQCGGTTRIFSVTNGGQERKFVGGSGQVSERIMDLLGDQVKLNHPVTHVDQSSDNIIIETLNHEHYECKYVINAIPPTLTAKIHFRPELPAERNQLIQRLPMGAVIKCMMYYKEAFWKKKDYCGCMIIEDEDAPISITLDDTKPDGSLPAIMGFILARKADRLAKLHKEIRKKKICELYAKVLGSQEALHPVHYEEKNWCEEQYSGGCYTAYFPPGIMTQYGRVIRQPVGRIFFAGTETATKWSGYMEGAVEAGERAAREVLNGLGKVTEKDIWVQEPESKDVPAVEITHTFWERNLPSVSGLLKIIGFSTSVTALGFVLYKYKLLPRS
The conditions noted are these: cited from earlier work.

For data set [7], the target named is T2, monoamine oxidase B (MAO-B) (Homo sapiens, UniProt P27338).
T2 sequence (P27338 1-520): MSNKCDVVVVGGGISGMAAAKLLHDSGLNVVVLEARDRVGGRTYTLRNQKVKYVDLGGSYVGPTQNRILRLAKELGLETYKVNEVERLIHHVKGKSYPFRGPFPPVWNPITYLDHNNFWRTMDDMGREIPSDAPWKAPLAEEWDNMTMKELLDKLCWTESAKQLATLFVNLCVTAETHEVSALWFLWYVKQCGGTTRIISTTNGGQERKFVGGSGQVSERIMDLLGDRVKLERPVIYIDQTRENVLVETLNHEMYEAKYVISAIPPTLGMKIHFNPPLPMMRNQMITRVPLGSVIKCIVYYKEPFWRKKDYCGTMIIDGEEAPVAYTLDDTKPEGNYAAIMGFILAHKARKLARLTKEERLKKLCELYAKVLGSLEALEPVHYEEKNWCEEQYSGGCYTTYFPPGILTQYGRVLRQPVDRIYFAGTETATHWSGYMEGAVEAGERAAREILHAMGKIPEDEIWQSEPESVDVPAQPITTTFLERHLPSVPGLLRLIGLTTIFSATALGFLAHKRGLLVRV
The settings on record: cited from earlier work.

For data set [8] the following is noted: first pKa value; cited from earlier work.
Data set [9] is described as follows: pKa and solubility data of harmine and the acids used in the salt screening. It counts as physicochemical.
A short description of data set [10]: Solubility of harmine glucuronate for loading of TIP particles. It is filed as physicochemical. The text has this:
Loading harmine or its salt into TIP particles: FIG. 12 depicts SEM images of unsuccessful TIP loading with Harmine HCl (A; 1% in EtOH) and successful loadings with Harmine HCl (B; 0.1% in EtOH) and Harmine Glucuronate (C; 25% in H2O). As shown, TIP particles can be loaded with Harmine HCl, but only when using very low substance concentrations (0.1%) in an organic solvent such as EtOH. Loading with higher concentrations (1%) leads to external crystallization. Moreover, using H2O as solvent, triggers the rapid precipitation of HRM HCl as freebase, when it is exposed to basic residues within the TIP particles. […] Regarding the latter point, it could be shown that the loading process of the TIP particles is most efficient, when adding highly concentrated drug substance solutions (either in EtOH, H2O or DMSO) to the particles. Loading TIP particles with harmine glucuronate yielded exceptional results. […] It is thought that this property of HRM GLU is caused by its highly amorphous structure, leading to less crystallization compared to HRM HCl (which crystallizes readily as freebase, especially when exposed to basic residues within the TIP particles).
Thus, harmine glucuronate is very practical to handle on a large scale (e.g. up to 1 Kg of HRM GLU can be dissolved in 1 L of water), yields very efficient loading of the TIP particles.

Data set [11] is described as follows: Dose-response study of DMT and harmine in healthy subjects: harmine PK profiles. The settings on record: 180 mg harmine with 90 mg DMT formulated in TIP, ODTs sublingual in 3 dosing intervals every 20 minutes, two subjects.
Where [12] appears, read: ethanol, organic solvent or mixture, EtOH, 25° C., read-out: Solubility at 25° C. (EtOH).
The mark [13] stands for this setting: ethanol, organic solvent or mixture, EtOH, 37° C., read-out: Solubility at 37° C. (EtOH).
Setting [14] is: water, H2O, 25° C., read-out: Solubility at 25° C. (H2O).
[15] abbreviates: water, H2O, 37° C., read-out: Solubility at 37° C. (H20).

In the case of `O=C(O)[C@H](O)[C@@H](O)[C@H](O)[C@H](O)CO` [D-gluconic acid], the “Solubility of harmine with the acid” value in data set [1] is “higher than 15%”.
Take `COc1ccc2c(c1)[nH]c1c(C)nccc12.Cl` [Harmine HCl, reference compound]: the solubility (in general, how much of the substance goes into solution per volume) at 48 h in data set [2] (setting [12]) turned out to be 6.79 mg/mL; in [2] (setting [13]), 7.95 mg/mL; in [2] (setting [14]), 24.9 mg/mL; in data set [2] (setting [15]) it was 53.1 mg/mL. Further, the “Solid form change on static storage” value in data set [3] (RT/100% RH for 7 days) is listed as “converts to the form scNF1”. For the same compound, the Cmax – broadly, the maximum level reached in the sampled fluid or tissue – in data set [4] (human, plasma, oral administration) was around 80 ng/mL. In data set [4] (oral capsule, 10 healthy volunteers), this compound gave a Harmine plasma level of around 80 ng/mL.
With `COc1ccc2c(c1)[nH]c1c(C)nccc12.O=P(O)(O)O` [Harmine Phosphate], the solubility at 48 h in data set [2] (setting [12]) is 0.58 mg/mL; in [2] (setting [13]) it was 0.55 mg/mL; in [2] (setting [14]), 11 mg/mL; in data set [2] (setting [15]) it was 12.9 mg/mL. The “Solubility compared with harmine hydrochloride” value is listed as “do not show any better solubility properties” in data set [2] (listed as Harmine-Phosphate, Phosphate) and “significantly worse” in [2] (listed as harmine phosphate, Phosphate). Further, in data set [3] (any deuterated solvent), the “Evaluation/Remarks: solubility in deuterated solvents” value is recorded as “Since the new form does not show sufficient solubility”.
As for `COc1ccc2c(c1)[nH]c1c(C)nccc12` [Harmine, 7-methoxy-1-methyl-9H-pyrido[3,4-b]-indole], the solubility came out at 10 mg/mL in data set [5] (2-picoline); 13 mg/mL in [5] (dimethyl sulfoxide (DMSO)); 33 mg/mL in data set [5] (dimethylformamide (DMF), dimethylformamid (DMF), souble); 12 mg/mL in data set [5] (methanol, 45 °C); 80 mg/mL in data set [5] (1-methyl-2-pyrrolidone (NMP), souble); 40 mg/mL in [5] (dimethylacetamide, souble). For the same compound, the solubility came out at 40 mg/mL in [5] (tetramethylurea, souble) and 205 mg/mL in data set [5] (pyridine). The Solubility in solvent result in [5] (95% methanol | 5% water) was “almost resolved”. Also, the Anti-Solvent practically insoluble in [5] (dimethyl carbonate, THF, acetonitrile, methanol, acetone, MEK, dichloromethane (25° C. | 45° C.), chloroform, 1,4-dioxane, water, veratrol, p-xylene, sulfolane, benzonitrile, 95% acetonitrile | 5% water (45° C.), 95% acetone | 5% water (45° C.)) was “practically insoluble”. The “Inhibition of MAO-A” value in [6] is reported as “reversibly inhibits”. Also, the “Inhibition of MAO-B” value in data set [7] was “does not inhibit”. Also, the “pka (½)” value in [8] was 7.45.
On to `COc1ccc2c(c1)[nH]c1c(C)nccc12.Cl.O.O` [Harmine-HCl dihydrate], for which the “Solid form stability at ambient conditions” value in data set [3] (after 5 weeks at ambient conditions, powder diffractogram) was “traces of Harmine-HCl were identified”.
In the case of `O=C(O)[C@@H](O)[C@H](O)[C@H](O)[C@@H](O)C(=O)O` [mucic acid], the “Ability of the acid to solubilize harmine freebase” value in data set [1] is “not able to solubilize harmine”.
Regarding D-glucuronic acid, the “Ability of the acid to solubilize harmine freebase” value in data set [1] (1 g harmine freebase in 5 g dH2O (20% w/w), acid added in molar ratios e.g. 1:1 or 2:1) is “highest solubility”.
Consider Harmine Glucuronate, for which the “Gravimetric solubility relative to harmin hydrochloride” value in [2] (25° C.) was “about eight times”. Besides, the Solubility (in general, the dissolved amount per volume that the medium holds) at 25° C. (EtOH) in data set [2] (EtOH, 25° C.) turned out to be 4.25 mg/mL. For the same compound, the “Solubility at 37° C. (EtOH)” value in data set [2] (EtOH, 37° C.) is listed as 7.93 mg/mL. For the same compound, the “Solubility at 25° C. (H2O)” value in [2] (H2O, 25° C.) is listed as 405.95 mg/mL. Moreover, in data set [2] (H2O, 37° C.), the “Solubility at 37° C. (H20)” value stood at 549.52 mg/mL. The “Solubility compared with harmine hydrochloride” value in [2] is recorded as “extremely improved solubility”. In data set [9], the “ΔpKs value of harmine and glucuronic acid” value amounted to 4.27. For the same compound, in data set [1] (harmine + equimolar glucuronic acid in deionized water, 1 g harmine in 5 mL final volume), the “Harmine concentration readily feasible in water” value is above 20%. Moreover, the “Solubility in H2O” value in [10] (H2O, RT) was around 45%. The “Amount that can be dissolved in 1 L of water” value in data set [10] (in 1 L of water) was “up to 1 Kg”. Further, the “Bioavailability of harmine (plasma PK profiles)” value in data set [11] was “bioavailable”.
Turning to L(−)-Malic acid, the ΔpKa in data set [9] (harmine pKa 7.45 versus first pKa of the acid) was found to be 3.99; in [9] (harmine pKa 7.45 versus second pKa of the acid), 2.35.
